According to the NIST ThermoML archive (doi:10.1016/j.jct.2018.09.010):

Assay: relative permittivity at various frequencies (dimensionless); xn = mol fraction of the nth substance listed
Settings: Gas, Frequency=385 MHz, Reentrant cavity resonator

[C-]#[O+] [carbon monoxide] + O=C=O
Settings | relative permittivity
255.04 K, 1972.8 kPa, x1 = 0.7493 | 1.01697
255.04 K, 3976.6 kPa, x1 = 0.7493 | 1.03607
255.05 K, 3004.5 kPa, x1 = 0.4959 | 1.03119
255.05 K, 5999.5 kPa, x1 = 0.7493 | 1.05751
255.06 K, 1479.4 kPa, x1 = 0.4959 | 1.01417
255.06 K, 1511.8 kPa, x1 = 0.4959 | 1.01451
255.06 K, 2026.5 kPa, x1 = 0.7493 | 1.01747
255.06 K, 3003.3 kPa, x1 = 0.4959 | 1.03118
255.06 K, 4001.7 kPa, x1 = 0.4959 | 1.04416
255.06 K, 5990.8 kPa, x1 = 0.7493 | 1.05742
255.06 K, 7992.1 kPa, x1 = 0.7493 | 1.08067
273.14 K, 1964 kPa, x1 = 0.7493 | 1.01551
273.14 K, 3995.6 kPa, x1 = 0.7493 | 1.03288
273.14 K, 5997.2 kPa, x1 = 0.7493 | 1.05136
273.15 K, 2016.4 kPa, x1 = 0.7493 | 1.01594
273.15 K, 4009 kPa, x1 = 0.7493 | 1.033
273.15 K, 5997.2 kPa, x1 = 0.7493 | 1.05135
273.15 K, 7991.2 kPa, x1 = 0.7493 | 1.07098
273.2 K, 1454.1 kPa, x1 = 0.4959 | 1.01273
273.2 K, 2480.8 kPa, x1 = 0.4959 | 1.02261
273.2 K, 4502 kPa, x1 = 0.4959 | 1.0448
273.2 K, 5505.6 kPa, x1 = 0.4959 | 1.05746
273.21 K, 3471.2 kPa, x1 = 0.4959 | 1.03299
293.23 K, 1980.8 kPa, x1 = 0.7493 | 1.0144
293.23 K, 3995.9 kPa, x1 = 0.7493 | 1.02993
293.23 K, 4015.8 kPa, x1 = 0.7493 | 1.0301
293.23 K, 6011.2 kPa, x1 = 0.7493 | 1.04635
293.23 K, 6015 kPa, x1 = 0.7493 | 1.04638
293.23 K, 8001.1 kPa, x1 = 0.7493 | 1.0633
293.24 K, 2023.8 kPa, x1 = 0.7493 | 1.01472
293.25 K, 2039.7 kPa, x1 = 0.4959 | 1.0167
293.25 K, 3988.8 kPa, x1 = 0.4959 | 1.03469
293.25 K, 4025.1 kPa, x1 = 0.4959 | 1.03504
293.25 K, 5986 kPa, x1 = 0.4959 | 1.05557
293.26 K, 1975.2 kPa, x1 = 0.4959 | 1.01614
293.26 K, 6541.1 kPa, x1 = 0.4959 | 1.06185
313.26 K, 1937.1 kPa, x1 = 0.4959 | 1.01462
313.26 K, 2024.1 kPa, x1 = 0.4959 | 1.0153
313.26 K, 5954.7 kPa, x1 = 0.4959 | 1.04939
313.26 K, 6218.2 kPa, x1 = 0.4959 | 1.0519
313.27 K, 4013.4 kPa, x1 = 0.4959 | 1.03178
313.28 K, 1974.2 kPa, x1 = 0.7493 | 1.01333
313.28 K, 2022.8 kPa, x1 = 0.7493 | 1.01367
313.28 K, 3992.7 kPa, x1 = 0.7493 | 1.02755
313.28 K, 5954.9 kPa, x1 = 0.7493 | 1.04192
313.28 K, 7996.5 kPa, x1 = 0.7493 | 1.05736
313.29 K, 6015.3 kPa, x1 = 0.7493 | 1.04237
